Laboratory results published in paper PMC4398456, “Evidence for a Novel Mechanism of Antimicrobial Action of a Cyclic R-,W-Rich Hexapeptide” (PLoS ONE, 2015).
Converted amounts (≈) assume the structure as drawn. Non-standard residues stand in square brackets, D forms with d. Residues, ends and D or L forms follow the SMILES beside them. *: point of attachment. NBD = O=[N+]([O-])c1ccc(*)c2nonc12; Dap = NC[C@H](N)C(=O)O

What was measured:
[1] = tested on: E. coli DH5α; settings: microdilution; reported before; cited from earlier work
[2] = tested on: B. subtilis DSM 347; settings: microdilution; reported before; cited from earlier work
[3] = tested on: E. coli L-WF+; assay: HPLC uptake study with o-nitroaniline modification; type: cell-based; settings: 10^9 cells/ml DPBSG, 24 μM peptide, 30 min, 37°C; o-nitroaniline treatment; fluorescence HPLC; three independent experiments in triplicates
From the text: (§1) As the cytoplasmic membrane of bacteria has been identified as the target of cWFW, cell wall-deficient L-form strains derived from E. coli (LWF+) and B. subtilis (L-170) were used to quantify peptide uptake into the cytoplasm. The approach, originally developed for the investigation of peptide uptake into eukaryotic cells, is based on chemical modification of the amino group of lysine side chains with o-nitroaniline and fluorescence-based HPLC detection of non-modified and modified sequences. Fluorescence labelling was necessary for quantification of cyclic hexapeptide uptake.
(§2) Cells were cultivated to an OD550 ± 0.8 in conical flasks as described above. After harvesting and centrifugation at 2000 × g (Sigma 3K12, Germany) for 12 min and removal of culture medium, cells were washed twice with DPBSG (DPBS containing 1g/l glucose). […] Protein content was determined with BCA Protein Assay Kit (Thermo Scientific, Germany) according to manufacturer’s instructions. […]
(§3) HPLC analysis was performed as described before using a Jasco LC-2000 Plus (U.S.) with a ProntoSil 300-5-C18-H column (250 × 4.6 mm, 5 μm) (Bischoff Chromatography, Germany) and a precolumn with PolyenCap A300, 10 μm. Peptide amounts were quantified via calibration curves for carboxyfluorescein (ex 445 nm, em 520 nm, gain 1000) and NBD fluorescence (ex 470 nm, em 520 nm, gain 1000), respectively.

[4] = tested on: B. subtilis L-170; assay: HPLC uptake study with o-nitroaniline modification; type: cell-based; settings: 10^9 cells/ml DPBSG, 24 μM peptide, 30 min, 37°C; o-nitroaniline treatment; fluorescence HPLC; three independent experiments in triplicates
From the text: as §1, §2, §3

[5] = tested on: E. coli; assay: Peptide localisation by fluorescence microscopy (CLSM); type: cell-based; settings: 12 μM peptide, 30 minutes, LB-agarose pad; at least three independent experiments
Procedure: Cells from an overnight culture were diluted 1:100 in fresh medium and grown to mid-log phase. LB-agarose pads were prepared by adding 1.5% agarose to LB medium and heated until the agarose was completely dissolved. In the case of translocation experiments the solution was slightly cooled down before peptides were added at a final concentration of 12 μM. 100 μl LB-agarose was applied to a cover slip and stored at 8°C in the dark for ~30 minutes. The hardened LB-pad was placed on top of 10 μl of bacterial culture (OD600 0.4) and live cell imaging was performed for up to 100 minutes in a heat controlled chamber to avoid desiccation.
Specific staining of CL with NAO has been shown before and is neither influenced by fixation nor depolarisation of the membrane. The emission shift from green to red fluorescence (513 nm to 640 nm) was reported to be exclusive for binding to CL and is caused by narrow stacking of dye molecules. Images were captured using a Zeiss Axiovert M200 inverted fluorescence microscope and an LSM 510 ConfoCor2 (Germany) with plan-apochromat 63, 100×/1.4 objective, respectively, and processed with ImageJ.

[6] = tested on: B. subtilis; assay: as above; type: cell-based; settings: 12 μM peptide, 30 minutes, LB-agarose pad; at least three independent experiments

| Structure (SMILES) | MIC E. coli DH5α [1] [µM] | MIC B. subtilis DSM 347 [2] [µM] | fraction of unmodified peptide, inaccessible for chemical modification, of the total cell-bound peptides [3] | fraction of unmodified peptide, inaccessible for chemical modification, of the total cell-bound peptides [4] [%] | peptide localisation in live cells [5] | peptide localisation in live cells [6] |
| --- | --- | --- | --- | --- | --- | --- |
| N=C(N)NCCC[C@@H]1NC(=O)[C@H](CCCCN)NC(=O)[C@H](Cc2c[nH]c3ccccc23)NC(=O)[C@H](CNc2ccc([N+](=O)[O-])c3nonc23)NC(=O)[C@H](Cc2c[nH]c3ccccc23)NC(=O)[C@H](CCCCN)NC1=O [cR2[NBD]] (cyclo(KRKW[Dap](NBD)W)) | 50 (≈ 51.7 µg/mL) | 12 (≈ 12.4 µg/mL) | about 20% | ~30 | – | – |
| N=C(N)NCCC[C@@H]1NC(=O)[C@H](CCCNC(=N)N)NC(=O)[C@H](Cc2c[nH]c3ccccc23)NC(=O)[C@H](CNc2ccc([N+](=O)[O-])c3nonc23)NC(=O)[C@H](Cc2c[nH]c3ccccc23)NC(=O)[C@H](CCCNC(=N)N)NC1=O [cW[NBD]W] (cyclo(RRRW[Dap](NBD)W)) | 50 (≈ 54.5 µg/mL) | 25 (≈ 27.3 µg/mL) | – | – | not detectable within the cytoplasm | not detectable within the cytoplasm |
